Assay results as given in patent publication US9422357.

Conditions: disulfide bond; 38-membered ring

In the case of S1C(disialo)•N19C(GlcNAc)-SRIF28, the ring closure, yield after HPLC is reported as 59%.
